Consider five molecules from US10113155B2, “Steviol glycosyltransferase and gene encoding same” (SUNTORY HOLDINGS LIMITED, priority 2012, dated 2018).

The target in assay [1] is T1, UGT73E1 homologous protein 1 (Stevia rebaudiana, UniProt Q6VAA9).
T1 construct: designed to carry the open reading frame of the UGT73E1 homologous protein 1 gene in frame with a His tag; made in house; host or cells: E. coli BL21(DE3)
Nature of the assay: Enzyme activity of UGT73E1 homologous protein 1: glucosylation of sugar acceptor substrates, LC-MS analysis. The assay is classed as biochemical. The note with it: for products found in the reaction solution with UGT73E1 homologous protein 1: 2 mM UDP-glucose, 0.1 mM sugar acceptor substrate, potassium phosphate buffer pH 7.0, 30° C., 1 hour. As to the method: Standard enzyme reaction conditions are as follows. A reaction solution (2 mM UDP-glucose, 0.1 mM sugar acceptor substrate (steviol), 100 mM potassium phosphate buffer (pH 7.0), 25 μl purified UGT73E1 homologous protein 1 enzyme solution) was prepared in a volume of 50 μl with distilled water and reacted at 30° C. for 1 hour. The enzyme reaction solution (5 μl) was analyzed by LC-MS under the following conditions.
Column: Waters Sunfire C18 3.5 um (2.0 mm I.D.×20 mm)
Mobile phase: A: MilliQ Water (+0.05% formic acid), B: MeCN
Gradient: linear concentration gradient of B from 15% to 55% over 20 minutes
Flow rate: 0.2 ml per minute

The conditions of assay [2]: reported in previous studies (Non-patent Document 2); cited from earlier work.

T1 sequence (Q6VAA9 whole entry H50D/D106H/L131W/P152K/L157P/I160M/V199L/A305T/L422S): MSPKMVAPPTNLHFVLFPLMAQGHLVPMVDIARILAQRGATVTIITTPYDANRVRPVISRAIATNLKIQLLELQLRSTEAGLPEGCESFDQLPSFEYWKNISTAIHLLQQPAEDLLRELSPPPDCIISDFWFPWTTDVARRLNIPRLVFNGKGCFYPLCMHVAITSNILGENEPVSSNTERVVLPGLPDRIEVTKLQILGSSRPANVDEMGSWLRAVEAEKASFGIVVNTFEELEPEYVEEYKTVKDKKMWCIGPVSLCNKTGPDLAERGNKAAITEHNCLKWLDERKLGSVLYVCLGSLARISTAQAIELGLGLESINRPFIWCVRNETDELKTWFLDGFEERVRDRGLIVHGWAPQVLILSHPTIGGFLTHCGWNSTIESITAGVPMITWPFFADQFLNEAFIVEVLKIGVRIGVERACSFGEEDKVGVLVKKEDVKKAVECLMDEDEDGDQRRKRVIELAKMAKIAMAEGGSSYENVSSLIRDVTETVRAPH

On to `C=C1C[C@@]23CC[C@H]4[C@@](C)(CCC[C@@]4(C)C(=O)O)[C@@H]2CC[C@]1(O)C3` (single isomer, unassigned) [steviol], for which the “products found in the reaction solution with UGT73E1 homologous protein 1” value in assay [1] is given as “four types of products were newly found”.

On to `C=C1C[C@@]23CC[C@H]4[C@@](C)(CCC[C@@]4(C)C(=O)O[C@@H]4O[C@H](CO)[C@@H](O)[C@H](O)[C@H]4O)[C@@H]2CC[C@]1(O[C@@H]1O[C@H](CO)[C@@H](O)[C@H](O)[C@H]1O)C3` [rubusoside], for which the “products found in the reaction solution with UGT73E1 homologous protein 1” value in assay [1] is reported as “Compound Z which appears to be a triglucoside of steviol was newly generated”. For the same molecule, in assay [1] (substrate reacted with UGT73E1 homologous protein 1), the “stevioside peak in the reaction solution with UGT73E1 homologous protein 1” value is given as “no significant stevioside peak can be found”.

Consider `C=C1C[C@@]23CC[C@H]4[C@@](C)(CCC[C@@]4(C)C(=O)O)[C@@H]2CC[C@]1(O[C@@H]1O[C@H](CO)[C@@H](O)[C@H](O)[C@H]1O[C@@H]1O[C@H](CO)[C@@H](O)[C@H](O)[C@H]1O)C3` [steviolbioside], for which, in assay [1], the “products found in the reaction solution with UGT73E1 homologous protein 1” value is listed as “a product which appears to be stevioside (peak F) was also detected”.

In the case of `C=C1C[C@@]23CC[C@H]4[C@@](C)(CCC[C@@]4(C)C(=O)O)[C@@H]2CC[C@]1(O[C@@H]1O[C@H](CO)[C@@H](O)[C@H](O)[C@H]1O)C3` [steviolmonoside], the “products found in the reaction solution with UGT73E1 homologous protein 1” value in assay [1] is “two peaks (peak E and peak F) were newly obtained”.

B1: UGT73E1: reported stevia glycosyltransferase, 98% identical to UGT73E1 homologous protein 1 (protein, UniProt Q6VAA9 1-495, looked up)
UDP-glycosyltransferase 73E1: MSPKMVAPPTNLHFVLFPLMAQGHLVPMVDIARILAQRGATVTIITTPYHANRVRPVISRAIATNLKIQLLELQLRSTEAGLPEGCESFDQLPSFEYWKNISTAIDLLQQPAEDLLRELSPPPDCIISDFLFPWTTDVARRLNIPRLVFNGPGCFYLLCIHVAITSNILGENEPVSSNTERVVLPGLPDRIEVTKLQIVGSSRPANVDEMGSWLRAVEAEKASFGIVVNTFEELEPEYVEEYKTVKDKKMWCIGPVSLCNKTGPDLAERGNKAAITEHNCLKWLDERKLGSVLYVCLGSLARISAAQAIELGLGLESINRPFIWCVRNETDELKTWFLDGFEERVRDRGLIVHGWAPQVLILSHPTIGGFLTHCGWNSTIESITAGVPMITWPFFADQFLNEAFIVEVLKIGVRIGVERACLFGEEDKVGVLVKKEDVKKAVECLMDEDEDGDQRRKRVIELAKMAKIAMAEGGSSYENVSSLIRDVTETVRAPH
Consider B1, for which the “glycosylation activity on steviol glycosides” value in assay [2] is on record as “no glycosylation activity on steviol glycosides”.
